The results in this text go back to patent US20240018145A1, “[…]-DEPENDENT EN[…] TREATING OR […]” (priority 2020, published 2024).

The experiment deals with FLU A (PR/8/34). Briefly: Flu A Neuraminidase Antiviral Assay. It is filed as cell-based.

Like-named read-outs stand apart in the source and are kept apart here.

As usually defined, the EC50 is the concentration at which the effect is half-maximal. A lower EC50 goes with a more potent agent. On to `CN1C(=O)c2c(O)c(=O)ccn2N2C(c3ccccc3)C(CC(F)F)CCC12` (single isomer, unassigned) [Compound 129D, 2-(2,2-difluoroethyl)-7-hydroxy-5-methyl-1-phenyl-1,2,3,4,4a,5-hexahydrodipyrido[1,2-b:2′,1′-f][1,2,4]triazine-6,8-dione], for which the EC50 was 0.092 µM.
As to `CCOC1CCC2N(C)C(=O)c3c(O)c(=O)ccn3N2C1c1ccccc1` (centres unmarked) [Compound 152A, 2-ethoxy-7-hydroxy-5-methyl-1-phenyl-1,2,3,4,4a,5-hexahydrodipyrido[1,2-b:2′,1′-f][1,2,4]triazine-6,8-dione], the EC50 stood at 4.3 µM.
In turn, `COCCN1C(=O)c2c(O)c(=O)ccn2N2C(c3ccc(F)cc3)CCCC12` (single isomer, unassigned) [Compound 4A, 1-(4-fluorophenyl)-7-hydroxy-5-(2-methoxyethyl)-1,2,3,4,4a,5-hexahydrodipyrido[1,2-b:2′,1′-f][1,2,4]triazine-6,8-dione] gave an EC50 (MDCK, 48 h) of over 8.1 µM.
Compound `CN1C(=O)c2c(O)c(=O)ccn2N2C(c3c(F)cccc3F)C(CC(F)(F)F)CCC12` (single isomer, unassigned) [Compound 123A, 1-(2,6-difluorophenyl)-7-hydroxy-5-methyl-2-(2,2,2-trifluoroethyl)-1,2,3,4,4a,5-hexahydrodipyrido[1,2-b:2′,1′-f][1,2,4] triazine-6,8-dione] displayed an EC50 of over 8.1 µM.
For the compound `CN1C(=O)c2c(O)c(=O)ccn2N2C1CCC1(CCC(F)(F)C1)C2c1ccccc1` (single isomer, unassigned) [Compound 68C, 3,3-difluoro-7′-hydroxy-5′-methyl-1′-phenyl-3′,4′,4a′,5′-tetrahydro-1′H-spiro[cyclopentane-1,2′-dipyrido[1,2-b:2′,1′-f][1,2,4]triazine]-6′,8′-dione], a half-maximal response (EC50) required 0.0114 µM. In other words, the double-digit nanomolar range.
As for `CN1C(=O)c2c(O)c(=O)ccn2N2C1CCCC2(C)c1ccccc1` (single isomer, unassigned) [Compound 18B, 7-hydroxy-1,5-dimethyl-1-phenyl-1,2,3,4,4a,5-hexahydrodipyrido[1,2-b:2′,1′-f][1,2,4]triazine-6,8-dione], the response was half-maximal at 0.356 µM (EC50).
Compound `CN1C(=O)c2c(O)c(=O)ccn2N2C(c3ccc(F)cc3)C(CC(F)(F)F)CCC12` (single isomer, unassigned) [Compound 122B, 1-(4-fluorophenyl)-7-hydroxy-5-methyl-2-(2,2,2-trifluoroethyl)-1,2,3,4,4a,5-hexahydrodipyrido[1,2-b:2′,1′-f][1,2,4]triazine-6,8-dione] returned an EC50 of 0.0052 µM.
`CN1C(=O)c2c(O)c(=O)ccn2N2C(c3ccc(F)cc3)C(CC(F)(F)F)CCC12` (single isomer, unassigned) [Compound 122A, 1-(4-fluorophenyl)-7-hydroxy-5-methyl-2-(2,2,2-trifluoroethyl)-1,2,3,4,4a,5-hexahydrodipyrido[1,2-b:2′,1′-f][1,2,4]triazine-6,8-dione] showed an EC50 of 0.343 µM.
Regarding `CCN1C(=O)c2c(O)c(=O)ccn2N2C(c3ccccc3C)C(CC(F)(F)F)CCC12` (single isomer, unassigned) [Compound 93B, 5-ethyl-7-hydroxy-1-(o-tolyl)-2-(2,2,2-trifluoroethyl)-1,2,3,4,4a,5-hexahydrodipyrido[1,2-b:2′,1′-f][1,2,4]triazine-6,8-dione], the EC50 is 0.0029 µM.
In turn, `CN1C(=O)c2c(O)c(=O)ccn2N2C(c3ccccc3)C(c3cccc(F)c3F)CCC12` (single isomer, unassigned) [Compound 116A, 2-(2,3-difluorophenyl)-7-hydroxy-5-methyl-1-phenyl-1,2,3,4,4a,5-hexahydrodipyrido[1,2-b:2′,1′-f][1,2,4]triazine-6,8-dione] displayed an EC50 of 6.2 µM.
Same read-out and setting: to `CCCC1CCC2N(C)C(=O)c3c(O)c(=O)ccn3N2C1(C)c1ccccc1` (single isomer, unassigned) [Compound 33C, 7-hydroxy-1,5-dimethyl-1-phenyl-2-propyl-1,2,3,4,4a,5-hexahydrodipyrido[1,2-b:2′,1′-f][1,2,4]triazine-6,8-dione] belongs 1.31 µM.
As for `CN1C(=O)c2c(O)c(=O)ccn2N2[C@H](c3ccccc3)[C@H](OCC3CCC3)CC[C@@H]12` [Compound 160, (1R,2R,4aS)-2-(cyclobutylmethoxy)-7-hydroxy-5-methyl-1-phenyl-1,2,3,4,4a,5-hexahydrodipyrido[1,2-b:2′,1′-f][1,2,4]triazine-6,8-dione], the EC50 (MDCK, 48 h) was determined as 0.0181 µM.
The compound `CN1C(=O)c2c(O)c(=O)ccn2N2C1CCC(C)(C)C2(C)c1ccccc1` (single isomer, unassigned) [Compound 35B, 7-hydroxy-1,2,2,5-tetramethyl-1-phenyl-1,2,3,4,4a,5-hexahydrodipyrido[1,2-b:2′,1′-f][1,2,4]triazine-6,8-dione] yielded an EC50 of over 8.1 µM.
`CN1C(=O)c2c(O)c(=O)ccn2N2C1CCCC2(C)c1cccc(F)c1` (single isomer, unassigned) [Compound 25B, 1-(3-fluorophenyl)-7-hydroxy-1,5-dimethyl-1,2,3,4,4a,5-hexahydrodipyrido[1,2-b:2′,1′-f][1,2,4]triazine-6,8-dione] came in with an EC50 of 0.0707 µM.
The same measure, in the same setting: to `CCN1C(=O)c2c(O)c(=O)ccn2N2C(c3ccccc3)C(CC(F)(F)F)CCC12C` (single isomer, unassigned) [Compound 82A, 5-ethyl-7-hydroxy-4a-methyl-1-phenyl-2-(2,2,2-trifluoroethyl)-1,2,3,4,4a,5-hexahydrodipyrido[1,2-b:2′,1′-f][1,2,4]triazine-6,8-dione] belongs over 0.81 µM; to `CCc1ccccc1C1C(CC(F)(F)F)CCC2N(C)C(=O)c3c(O)c(=O)ccn3N12` (single isomer, unassigned) [Compound 112A, 1-(2-ethylphenyl)-7-hydroxy-5-methyl-2-(2,2,2-trifluoroethyl)-1,2,3,4,4a,5-hexahydrodipyrido[1,2-b:2′,1′-f][1,2,4]triazine-6,8-dione], 0.0037 µM; to `CN1C(=O)c2c(O)c(=O)ccn2N2[C@H](c3ccccc3)[C@H](OCC(F)F)CC[C@@H]12` (single isomer, unassigned) [Compound 153A], 3.06 µM.
As for `CN1C(=O)c2c(O)c(=O)ccn2N2C(c3ccccc3)C(c3ccc(F)c(F)c3F)CCC12` (single isomer, unassigned) [Compound 85A, 7-hydroxy-5-methyl-1-phenyl-2-(2,3,4-trifluorophenyl)-1,2,3,4,4a,5-hexahydrodipyrido[1,2-b:2′,1′-f][1,2,4]triazine-6,8-dione], the EC50 was over 0.81 µM.
`CN1C(=O)c2c(O)c(=O)ccn2N2C1CCC1(CC(F)(F)C1)C2c1ccccc1` (single isomer, unassigned) [Compound 74A, 3,3-difluoro-7′-hydroxy-5′-methyl-1′-phenyl-3′,4′,4a′,5′-tetrahydro-1′H-spiro[cyclobutane-1,2′-dipyrido[1,2-b:2′,1′-f][1,2,4]triazine]-6′,8′-dione] came in with a concentration for a half-maximal effect (EC50) of over 0.81 µM.
Under “MDCK, 48 h”, `COCCCO[C@@H]1CC[C@H]2N(C)C(=O)c3c(O)c(=O)ccn3N2[C@@H]1c1ccccc1` [Compound 163, (1R,2R,4aS)-7-hydroxy-2-(3-methoxypropoxy)-5-methyl-1-phenyl-1,2,3,4,4a,5-hexahydrodipyrido[1,2-b:2′,1′-f][1,2,4]triazine-6,8-dione] displayed an EC50 of 0.27 µM.
